Measured values reported in PMC10819888, “Benzimidazole-Based Derivatives as Apoptotic Antiproliferative Agents: Design, Synthesis, Docking, and Mechanistic Studies” (Molecules, 2024).

Assays:
Test in all cases: NCI-60 one-dose assay
Type in all cases: cell-based
[1] = tested on: UACC-257; settings: Homo sapiens, UACC-257 (Melanoma), read-out: Cell Inhibition Percent
[2] = tested on: EKVX; settings: Homo sapiens, EKVX (Non-Small Cell Lung Cancer), read-out: Cell Inhibition Percent
[3] = tested on: SF-539; settings: Homo sapiens, SF-539 (CNS cancer), read-out: Cell Inhibition Percent
[4] = tested on: PC-3; settings: Homo sapiens, PC-3 (Prostate Cancer), read-out: Cell Inhibition Percent
[5] = tested on: SF-295; settings: Homo sapiens, SF-295 (CNS cancer), read-out: Cell Inhibition Percent
[6] = tested on: MALME-3M; settings: Homo sapiens, MALME-3M (Melanoma), read-out: Cell Inhibition Percent
[7] = tested on: U251; settings: Homo sapiens, U-251, U251 (CNS cancer), read-out: Cell Inhibition Percent
[8] = tested on: NCI-H23; settings: Homo sapiens, NCI-H23 (Non-Small Cell Lung Cancer), read-out: Cell Inhibition Percent
[9] = tested on: IGROV1; settings: Homo sapiens, IGROV-1, IGROV1 (ovarian cancer), read-out: Cell Inhibition Percent
[10] = tested on: HT29; settings: Homo sapiens, HT-29, HT29 (Colon Cancer), read-out: Cell Inhibition Percent
[11] = tested on: SK-MEL-28; settings: Homo sapiens, SK-MEL-28 (Melanoma), read-out: Cell Inhibition Percent
[12] = tested on: OVCAR-8; settings: Homo sapiens, OVCAR-8 (ovarian cancer), read-out: Cell Inhibition Percent
[13] = tested on: MCF7; settings: Homo sapiens, MCF7 (Breast Cancer), read-out: Cell Inhibition Percent
[14] = tested on: RXF 393; settings: Homo sapiens, RXF 393 (Renal Cancer), read-out: Cell Inhibition Percent
[15] = tested on: SW-620; settings: Homo sapiens, SW-620 (Colon Cancer), read-out: Cell Inhibition Percent
[16] = tested on: SNB-19; settings: Homo sapiens, SNB-19 (CNS cancer), read-out: Cell Inhibition Percent
[17] = tested on: NCI/ADR-RES; settings: Homo sapiens, NCI/ADR-RES (ovarian cancer), read-out: Cell Inhibition Percent
[18] = tested on: A549/ATCC; settings: Homo sapiens, A549/ATCC (Non-Small Cell Lung Cancer), read-out: Cell Inhibition Percent
[19] = tested on: SK-MEL-2; settings: Homo sapiens, SK-MEL-2 (Melanoma), read-out: Cell Inhibition Percent
[20] = tested on: SK-MEL-5; settings: Homo sapiens, SK-MEL-5 (Melanoma), read-out: Cell Inhibition Percent
[21] = tested on: OVCAR-3; settings: Homo sapiens, OVCAR-3 (ovarian cancer), read-out: Cell Inhibition Percent
[22] = tested on: NCI-H226; settings: Homo sapiens, NCI-H226 (Non-Small Cell Lung Cancer), read-out: Cell Inhibition Percent
[23] = tested on: MOLT-4; settings: Homo sapiens, MOLT-4 (Leukemia), read-out: Cell Inhibition Percent
[24] = tested on: SF-268; settings: Homo sapiens, SF-268 (CNS cancer), read-out: Cell Inhibition Percent
[25] = tested on: SNB-75; settings: Homo sapiens, SNB-75 (CNS cancer), read-out: Cell Inhibition Percent
[26] = tested on: COLO 205; settings: Homo sapiens, COLO 205 (Colon Cancer), read-out: Cell Inhibition Percent
[27] = tested on: CCRF-CEM; settings: Homo sapiens, CCRF-CEM (Leukemia), read-out: Cell Inhibition Percent
[28] = tested on: MDA-MB 231; settings: Homo sapiens, MDA-MB 231 (Breast Cancer), read-out: Cell Inhibition Percent
[29] = tested on: TK-10; settings: Homo sapiens, TK-10 (Renal Cancer), read-out: Cell Inhibition Percent

SMILES	inhibition at 10 µM [1]	inhibition at 10 µM [2]	inhibition at 10 µM [3]	inhibition at 10 µM [4]	inhibition at 10 µM [6]	inhibition at 10 µM [7]	inhibition at 10 µM [8]	inhibition at 10 µM [9]	inhibition at 10 µM [10]	inhibition at 10 µM [11]	inhibition at 10 µM [12]	inhibition at 10 µM [13]	inhibition at 10 µM [14]	inhibition at 10 µM [15]	inhibition at 10 µM [16]	inhibition at 10 µM [17]	inhibition at 10 µM [18]	inhibition at 10 µM [19]	inhibition at 10 µM [20]	inhibition at 10 µM [21]	other results
CN(C)c1ccc(C=NNC(=O)c2ccc3[nH]c(-c4ccc(Cl)cc4)nc3c2)cc1 [Compound 4b, N′-(4-(Dimethylamino)benzylidene)-2-(4-chlorophenyl)-1H-benzimidazole-5-carbohydrazide]	0%	2.85%	5.22%	4.81%	12.9%	0%	1.51%	15%	2.26%	0%	5.81%	23.8%	7.79%	0%	0%	0.43%	0%	0%	5.02%	0%	inhibition at 10 µM [5]: 1.06%; inhibition at 10 µM [22]: 4.67%; inhibition at 10 µM [23]: 3.18%; inhibition at 10 µM [24]: 0.73%; inhibition at 10 µM [25]: 0.61%; inhibition at 10 µM [26]: 0%; inhibition at 10 µM [27]: 6.5%; inhibition at 10 µM [28]: 15.6%; inhibition at 10 µM [29]: 0%
CCNC(=S)NNC(=O)c1ccc2[nH]c(-c3ccc(Cl)cc3)nc2c1 [Compound 5]	0%	18.2%	12.2%	7.83%	1.54%	2.36%	5.79%	14.3%	2.33%	0%	6.74%	22.1%	7.61%	0%	2.37%	1.07%	6.17%	0%	9.57%	0%	inhibition at 10 µM [22]: 9.79%; inhibition at 10 µM [23]: 90%; inhibition at 10 µM [24]: 1.33%; inhibition at 10 µM [25]: 7.77%; inhibition at 10 µM [26]: 0%; inhibition at 10 µM [27]: 86.9%; inhibition at 10 µM [28]: 20.5%; inhibition at 10 µM [29]: 0%
